Experimental data as given in publication PMC5218480 (PLoS ONE, 2017).

Test system: MV-4-11 cells
Assay: Gene expression microarray analysis (Affymetrix PrimeView) and GSEA
Format: cell-based, human
Parameters: RFU PODN (11730768_x_at) / Fold change /veh PODN (11730768_x_at) / RFU LINC00158 (11744669_a_at) / Fold change /veh LINC00158 (11744669_a_at) / RFU DUSP10 (11751237_a_at) / Fold change /veh DUSP10 (11751237_a_at) / RFU ID3 (11757404_x_at) / Fold change /veh ID3 (11757404_x_at) / RFU PLEKHG5 (11737974_s_at) / Fold change /veh PLEKHG5 (11737974_s_at) / RFU LRRC4B (11730491_at) / Fold change /veh LRRC4B (11730491_at) / RFU GIMAP4 (11747438_a_at) / Fold change /veh GIMAP4 (11747438_a_at) / RFU KRT8 (11758183_x_at) / Fold change /veh KRT8 (11758183_x_at) / RFU CNN1 (11734310_a_at) / Fold change /veh CNN1 (11734310_a_at) / RFU VPS37D (11726825_at) / Fold change /veh VPS37D (11726825_at) / RFU C10orf10 (11716522_x_at) / Fold change /veh C10orf10 (11716522_x_at) / RFU KIR2DL2 /// KIR2DL4 /// KIR2DL5A /// KIR2DL5B /// KIR2DS1 /// KIR2DS2 /// KIR2DS3 /// KIR2DS4 /// KIR3DL3 /// KIR3DL3 /// KIR3DS1 (11738374_at) / Fold change /veh KIR2DL2 /// KIR2DL4 /// KIR2DL5A /// KIR2DL5B /// KIR2DS1 /// KIR2DS2 /// KIR2DS3 /// KIR2DS4 /// KIR3DL3 /// KIR3DL3 /// KIR3DS1 (11738374_at) / RFU C1QL1 (11718748_at) / Fold change /veh C1QL1 (11718748_at) / RFU TMPRSS4 (11747572_a_at) / Fold change /veh TMPRSS4 (11747572_a_at) / RFU HAMP (11756126_x_at) / Fold change /veh HAMP (11756126_x_at) / RFU RNFT2 (11725882_a_at) / Fold change /veh RNFT2 (11725882_a_at) / RFU NR4A2 (11747474_a_at) / Fold change /veh NR4A2 (11747474_a_at) / RFU ABCC12 (11746883_a_at) / Fold change /veh ABCC12 (11746883_a_at) / RFU TMEM136 (11760407_x_at) / Fold change /veh TMEM136 (11760407_x_at) / RFU CLDN22 /// WWC2 (11732394_at) / Fold change /veh CLDN22 /// WWC2 (11732394_at) / RFU HLA-DPB1 (11760878_x_at) / Fold change /veh HLA-DPB1 (11760878_x_at) / RFU SPINT1 (11716480_a_at) / Fold change /veh SPINT1 (11716480_a_at) / RFU GAP43 (11754022_s_at) / Fold change /veh GAP43 (11754022_s_at) / RFU A4GNT (11735810_at) / Fold change /veh A4GNT (11735810_at) / RFU PRB3 (11715151_x_at) / Fold change /veh PRB3 (11715151_x_at) / RFU TUBB4B (11761932_at) / Fold change /veh TUBB4B (11761932_at) / RFU CAPN14 (11732068_a_at) / Fold change /veh CAPN14 (11732068_a_at) / RFU TMCC2 (11721928_a_at) / Fold change /veh TMCC2 (11721928_a_at) / RFU IRGQ (11745062_a_at) / Fold change /veh IRGQ (11745062_a_at) / RFU FAM174B (11720279_a_at) / Fold change /veh FAM174B (11720279_a_at) / RFU TMPRSS4 (11748680_a_at) / Fold change /veh TMPRSS4 (11748680_a_at) / RFU FAM212B (11763350_a_at) / Fold change /veh FAM212B (11763350_a_at) / RFU PLEKHG5 (11743358_a_at) / Fold change /veh PLEKHG5 (11743358_a_at) / RFU ZSCAN30 (11745921_a_at) / Fold change /veh ZSCAN30 (11745921_a_at) / RFU CMKLR1 (11741424_a_at) / Fold change /veh CMKLR1 (11741424_a_at) / RFU LOC101060620 /// MAPK8IP1 (11723275_at) / Fold change /veh LOC101060620 /// MAPK8IP1 (11723275_at) / RFU SPTSSB (11747773_x_at) / Fold change /veh SPTSSB (11747773_x_at) / RFU PRSS12 (11739890_at) / Fold change /veh PRSS12 (11739890_at) / RFU BIN1 (11741810_x_at) / Fold change /veh BIN1 (11741810_x_at) / RFU WNT11 (11732464_a_at) / Fold change /veh WNT11 (11732464_a_at) / RFU C10orf10 (11716521_a_at) / Fold change /veh C10orf10 (11716521_a_at) / RFU C5orf56 (11738089_at) / Fold change /veh C5orf56 (11738089_at) / RFU CYB561 (11721691_x_at) / Fold change /veh CYB561 (11721691_x_at) / RFU ANKRD19P (11752326_a_at) / Fold change /veh ANKRD19P (11752326_a_at) / RFU OR2T12 /// OR2T33 /// OR2T8 (11738714_s_at) / Fold change /veh OR2T12 /// OR2T33 /// OR2T8 (11738714_s_at) / RFU VCAN (11748164_a_at) / Fold change /veh VCAN (11748164_a_at) / RFU JSRP1 (11732532_at) / Fold change /veh JSRP1 (11732532_at) / RFU KRTAP10-11 (11738290_x_at) / Fold change /veh KRTAP10-11 (11738290_x_at) / RFU MYO3A (11730013_a_at) / Fold change /veh MYO3A (11730013_a_at) / RFU EBF3 (11725865_a_at) / Fold change /veh EBF3 (11725865_a_at) / RFU CAMK2N1 (11719241_x_at) / Fold change /veh CAMK2N1 (11719241_x_at) / RFU C5orf56 (11738088_a_at) / Fold change /veh C5orf56 (11738088_a_at) / RFU OLFML3 (11715873_a_at) / Fold change /veh OLFML3 (11715873_a_at) / RFU LOC100653217 /// NTM (11731650_a_at) / Fold change /veh LOC100653217 /// NTM (11731650_a_at) / RFU MAPK11 (11762145_a_at) / Fold change /veh MAPK11 (11762145_a_at) / RFU FIZ1 (11724087_x_at) / Fold change /veh FIZ1 (11724087_x_at) / RFU OASL (11726364_x_at) / Fold change /veh OASL (11726364_x_at) / RFU SOX15 (11748057_x_at) / Fold change /veh SOX15 (11748057_x_at) / RFU CD79A (11719716_a_at) / Fold change /veh CD79A (11719716_a_at) / RFU HIST1H1D (11736915_at) / Fold change /veh HIST1H1D (11736915_at) / RFU CASKIN2 (11723855_a_at) / Fold change /veh CASKIN2 (11723855_a_at) / RFU LOC730098 (11760151_x_at) / Fold change /veh LOC730098 (11760151_x_at) / RFU OR4N2 (11742367_at) / Fold change /veh OR4N2 (11742367_at) / RFU PRRT2 (11749266_a_at) / Fold change /veh PRRT2 (11749266_a_at) / RFU SNX32 (11753110_a_at) / Fold change /veh SNX32 (11753110_a_at) / RFU CDHR5 (11726645_a_at) / Fold change /veh CDHR5 (11726645_a_at) / RFU RCAN1 (11760418_a_at) / Fold change /veh RCAN1 (11760418_a_at) / RFU FAM167A (11723789_a_at) / Fold change /veh FAM167A (11723789_a_at) / RFU FAM26E (11764081_at) / Fold change /veh FAM26E (11764081_at) / RFU ISYNA1 (11749810_s_at) / Fold change /veh ISYNA1 (11749810_s_at) / RFU ACY1 (11761880_at) / Fold change /veh ACY1 (11761880_at) / RFU 11764098_at / Fold change /veh 11764098_at / RFU SAMD14 (11745864_x_at) / Fold change /veh SAMD14 (11745864_x_at) / RFU NPB (11741838_a_at) / Fold change /veh NPB (11741838_a_at) / RFU TMPRSS6 (11731388_a_at) / Fold change /veh TMPRSS6 (11731388_a_at) / RFU KRTAP10-2 (11738614_at) / Fold change /veh KRTAP10-2 (11738614_at) / RFU ARHGAP8 /// PRR5-ARHGAP8 (11727945_x_at) / Fold change /veh ARHGAP8 /// PRR5-ARHGAP8 (11727945_x_at) / RFU KRTAP5-7 /// NADSYN1 (11734609_at) / Fold change /veh KRTAP5-7 /// NADSYN1 (11734609_at) / RFU RASL12 (11751679_a_at) / Fold change /veh RASL12 (11751679_a_at) / RFU CDKN2B (11736163_a_at) / Fold change /veh CDKN2B (11736163_a_at) / RFU PRF1 (11729649_at) / Fold change /veh PRF1 (11729649_at) / RFU, ZNF638 /// ZNF638-IT1 / Fold change vs veh, ZNF638 /// ZNF638-IT1 / RFU, PANK3 / Fold change vs veh, PANK3 / RFU, SH3YL1 / Fold change vs veh, SH3YL1 / RFU, ZEB2 / Fold change vs veh, ZEB2 / RFU, NRIP1 / Fold change vs veh, NRIP1 / RFU, PTTG1IP / Fold change vs veh, PTTG1IP / RFU, CAPN2 / Fold change vs veh, CAPN2 / RFU, MED14 / Fold change vs veh, MED14 / RFU, SNORA58 / Fold change vs veh, SNORA58 / RFU, C1orf63 / Fold change vs veh, C1orf63 / RFU, LRRFIP1 / Fold change vs veh, LRRFIP1 / RFU, NDUFAF7 / Fold change vs veh, NDUFAF7 / RFU, SLC12A2 / Fold change vs veh, SLC12A2 / RFU, IBTK / Fold change vs veh, IBTK / RFU, ESF1 / Fold change vs veh, ESF1 / Fold change vs veh, TMEM50B / RFU, TAOK1 / Fold change vs veh, TAOK1 / RFU, ACBD3 / Fold change vs veh, ACBD3 / RFU, TMA16 / Fold change vs veh, TMA16 / RFU, RWDD3 / Fold change vs veh, RWDD3 / RFU, BCAT1 / Fold change vs veh, BCAT1 / RFU, EDEM3 / Fold change vs veh, EDEM3 / RFU, TMEM33 / Fold change vs veh, TMEM33 / RFU, WDR75 / Fold change vs veh, WDR75 / RFU, AHCTF1 / Fold change vs veh, AHCTF1 / RFU, TFRC / Fold change vs veh, TFRC / RFU, ZDHHC17 / Fold change vs veh, ZDHHC17 / RFU, NOM1 / Fold change vs veh, NOM1 / RFU, ARL8B / Fold change vs veh, ARL8B / RFU, ZBTB11 / Fold change vs veh, ZBTB11 / RFU, TAMM41 / Fold change vs veh, TAMM41 / RFU, KIAA1704 /// LOC100996395 / Fold change vs veh, KIAA1704 /// LOC100996395 / RFU, ING1 / Fold change vs veh, ING1 / RFU, TRMT61B / Fold change vs veh, TRMT61B / RFU, FUBP3 / Fold change vs veh, FUBP3 / RFU, TP53 / Fold change vs veh, TP53 / RFU, TNKS2 / Fold change vs veh, TNKS2 / RFU, ZFP14 / Fold change vs veh, ZFP14 / RFU, ACTR2 / Fold change vs veh, ACTR2 / RFU, PPP3R1 / Fold change vs veh, PPP3R1 / RFU, PIK3R1 / Fold change vs veh, PIK3R1 / RFU, HNRNPA1 / Fold change vs veh, HNRNPA1 / RFU, RNF170 / Fold change vs veh, RNF170 / RFU, ZNF28 / Fold change vs veh, ZNF28 / RFU, RNGTT / Fold change vs veh, RNGTT / RFU, OGT / Fold change vs veh, OGT / RFU, BRD1 / Fold change vs veh, BRD1 / RFU, MARS / Fold change vs veh, MARS / RFU, ZNF655 / Fold change vs veh, ZNF655 / RFU, FAHD1 / Fold change vs veh, FAHD1 / RFU, BDP1 / Fold change vs veh, BDP1 / RFU, LRRCC1 / Fold change vs veh, LRRCC1 / RFU, ARID1A / Fold change vs veh, ARID1A / RFU, ZNF146 / Fold change vs veh, ZNF146 / RFU, ZNF330 / Fold change vs veh, ZNF330 / RFU, GPN3 / Fold change vs veh, GPN3 / RFU, C9orf123 / Fold change vs veh, C9orf123 / RFU, N4BP2L2 / Fold change vs veh, N4BP2L2 / RFU, ARFIP1 / Fold change vs veh, ARFIP1 / RFU, FAM179B / Fold change vs veh, FAM179B / RFU, BCL10 / Fold change vs veh, BCL10 / RFU, UHRF1BP1L / Fold change vs veh, UHRF1BP1L / RFU, BET1 / Fold change vs veh, BET1 / RFU, CNOT2 / Fold change vs veh, CNOT2 / RFU, ZNF268 / Fold change vs veh, ZNF268 / Fold change vs veh, ZNF507 / RFU, DGCR2 / Fold change vs veh, DGCR2 / RFU, WDSUB1 / Fold change vs veh, WDSUB1 / Fold change vs veh, HSP90B1 /// MIR3652 / RFU, ADSS / Fold change vs veh, ADSS / RFU, GK / Fold change vs veh, GK / RFU, ZNF148 / Fold change vs veh, ZNF148 / RFU, TAF9 / Fold change vs veh, TAF9 / RFU, SLC1A5 / Fold change vs veh, SLC1A5 / RFU, SLMO2 / Fold change vs veh, SLMO2 / RFU, ABCC4 / Fold change vs veh, ABCC4 / RFU, LOC101060439 /// RAP1B / Fold change vs veh, LOC101060439 /// RAP1B / RFU, RFX7 / Fold change vs veh, RFX7 / RFU, GTPBP10 / Fold change vs veh, GTPBP10 / RFU, CNEP1R1 / Fold change vs veh, CNEP1R1 / RFU, BIVM-ERCC5 /// ERCC5 / Fold change vs veh, BIVM-ERCC5 /// ERCC5 / RFU, ILF3 / Fold change vs veh, ILF3 / RFU 11762660_at / Fold change /veh 11762660_at / RFU VCAN (11757783_s_at) / Fold change /veh VCAN (11757783_s_at) / RFU DDX43 (11728927_at) / Fold change /veh DDX43 (11728927_at) / RFU KRT8 (11758188_x_at) / Fold change /veh KRT8 (11758188_x_at) / RFU NKD1 (11759106_at) / Fold change /veh NKD1 (11759106_at) / RFU SRD5A1 (11742802_a_at) / Fold change /veh SRD5A1 (11742802_a_at) / RFU TPSAB1 /// TPSB2 (11721975_s_at) / Fold change /veh TPSAB1 /// TPSB2 (11721975_s_at) / RFU GSTM3 (11746129_a_at) / Fold change /veh GSTM3 (11746129_a_at) / RFU IL23R (11737362_x_at) / Fold change /veh IL23R (11737362_x_at) / RFU TMEM51 (11727254_a_at) / Fold change /veh TMEM51 (11727254_a_at) / RFU PIWIL2 (11732686_x_at) / Fold change /veh PIWIL2 (11732686_x_at) / RFU ORM1 (11744905_x_at) / Fold change /veh ORM1 (11744905_x_at) / RFU CCDC152 (11743942_at) / Fold change /veh CCDC152 (11743942_at) / RFU ECM1 (11717891_a_at) / Fold change /veh ECM1 (11717891_a_at) / RFU IL23R (11748794_a_at) / Fold change /veh IL23R (11748794_a_at) / RFU TNFAIP8L3 (11732012_x_at) / Fold change /veh TNFAIP8L3 (11732012_x_at) / RFU MBOAT4 (11741988_at) / Fold change /veh MBOAT4 (11741988_at) / RFU 11764193_at / Fold change /veh 11764193_at / RFU TMEM53 (11763286_at) / Fold change /veh TMEM53 (11763286_at) / RFU MAGEB2 (11727129_at) / Fold change /veh MAGEB2 (11727129_at) / RFU TMEM200A (11744735_a_at) / Fold change /veh TMEM200A (11744735_a_at) / RFU CCDC152 (11751479_a_at) / Fold change /veh CCDC152 (11751479_a_at) / RFU FAM211A (11726209_a_at) / Fold change /veh FAM211A (11726209_a_at) / RFU RGS16 (11746705_a_at) / Fold change /veh RGS16 (11746705_a_at) / RFU VCAN (11755009_s_at) / Fold change /veh VCAN (11755009_s_at) / RFU RHOB (11743442_s_at) / Fold change /veh RHOB (11743442_s_at) / RFU RGS16 (11720943_a_at) / Fold change /veh RGS16 (11720943_a_at) / RFU RGS16 (11720944_at) / Fold change /veh RGS16 (11720944_at) / RFU, VPS4B / Fold change vs veh, VPS4B / RFU, CREB1 / Fold change vs veh, CREB1 / RFU, DNAJC13 / Fold change vs veh, DNAJC13 / RFU, GNAQ / Fold change vs veh, GNAQ / RFU, CDK5R1 / Fold change vs veh, CDK5R1 / RFU, ZRANB3 / Fold change vs veh, ZRANB3 / RFU, CUL4A / Fold change vs veh, CUL4A / RFU, CCNY / Fold change vs veh, CCNY / RFU, UFL1 / Fold change vs veh, UFL1 / RFU, COG3 / Fold change vs veh, COG3 / RFU, DIAPH2 / Fold change vs veh, DIAPH2 / RFU, SKA2 / Fold change vs veh, SKA2 / RFU, AFF3 / Fold change vs veh, AFF3 / RFU, LMF1 / Fold change vs veh, LMF1 / RFU, IPO11 / Fold change vs veh, IPO11 / RFU, DFFB / Fold change vs veh, DFFB / RFU, FOXP1 / Fold change vs veh, FOXP1 / RFU, CARD8 / Fold change vs veh, CARD8 / RFU, STRN3 / Fold change vs veh, STRN3 / RFU, ADK / Fold change vs veh, ADK / RFU, RASSF2 / Fold change vs veh, RASSF2 / RFU, WIPF1 / Fold change vs veh, WIPF1 / RFU, LARP1B / Fold change vs veh, LARP1B / RFU, RASA1 / Fold change vs veh, RASA1 / RFU, RB1 / Fold change vs veh, RB1 / RFU, PPFIA1 / Fold change vs veh, PPFIA1 / RFU, MAT2A / Fold change vs veh, MAT2A / RFU, CCT5 / Fold change vs veh, CCT5 / RFU, WDR92 / Fold change vs veh, WDR92 / RFU, CUX1 / Fold change vs veh, CUX1 / RFU, TTC7A / Fold change vs veh, TTC7A / RFU, TMEM135 / Fold change vs veh, TMEM135 / RFU, DEPTOR / Fold change vs veh, DEPTOR / RFU, CPM / Fold change vs veh, CPM / RFU, DNAJB6 / Fold change vs veh, DNAJB6 / RFU, CACNA2D3 / Fold change vs veh, CACNA2D3 / RFU, DTX4 / Fold change vs veh, DTX4 / RFU, TFCP2 / Fold change vs veh, TFCP2 / RFU, GMCL1 /// GMCL1P1 / Fold change vs veh, GMCL1 /// GMCL1P1 / RFU, AEBP2 / Fold change vs veh, AEBP2 / RFU, SNHG1 /// SNORD22 /// SNORD25 /// SNORD26 /// SNORD27 /// SNORD28 /// SNORD29 /// SNORD31 / Fold change vs veh, SNHG1 /// SNORD22 /// SNORD25 /// SNORD26 /// SNORD27 /// SNORD28 /// SNORD29 /// SNORD31 / Fold change (Aza/veh), C12orf56 (ProbeSet 11735607_a_at) / Fold change (ACY-1035/veh), C12orf56 (ProbeSet 11735607_a_at) / Fold change (Aza/veh), FGFR1OP (ProbeSet 11751329_s_at) / Fold change (ACY-1035/veh), FGFR1OP (ProbeSet 11751329_s_at) / Fold change (Aza/veh), VPS36 (ProbeSet 11739960_a_at) / Fold change (ACY-1035/veh), VPS36 (ProbeSet 11739960_a_at) / RFU SYPL1 (11715823_x_at) / Fold change /veh SYPL1 (11715823_x_at) / RFU IGFBP7 (11715501_s_at) / Fold change /veh IGFBP7 (11715501_s_at) / RFU REEP3 (11722064_at) / Fold change /veh REEP3 (11722064_at) / RFU IGLL1 (11728026_x_at) / Fold change /veh IGLL1 (11728026_x_at): dose or concentration left out as unconfirmed
Settings: ProbeSet 11716844_s_at; LIST D

SMILES: Nc1ncn([C@@H]2O[C@H](CO)[C@@H](O)[C@H]2O)c(=O)n1 [azacitidine]
- Fold change vs veh, DNAJC13: 0.78
